Experimental data: patent US9815846B2 (Merck Sharp & Dohme Corp., priority 2014, dated 2017)

molecular target: human TrkA receptor (Homo sapiens (Human), UniProt P04629); assay: DiscoverX PathHunter TrkA functional assay (NGF-stimulated U2OS cells); format: cell-based; conditions: U2OS cells expressing human TrkA-PK, Shc1-EA and p75NTR; compound 1 h, then NGF at ~80% of maximal response for 3 h; luminescence
Sequence (P04629 33-796): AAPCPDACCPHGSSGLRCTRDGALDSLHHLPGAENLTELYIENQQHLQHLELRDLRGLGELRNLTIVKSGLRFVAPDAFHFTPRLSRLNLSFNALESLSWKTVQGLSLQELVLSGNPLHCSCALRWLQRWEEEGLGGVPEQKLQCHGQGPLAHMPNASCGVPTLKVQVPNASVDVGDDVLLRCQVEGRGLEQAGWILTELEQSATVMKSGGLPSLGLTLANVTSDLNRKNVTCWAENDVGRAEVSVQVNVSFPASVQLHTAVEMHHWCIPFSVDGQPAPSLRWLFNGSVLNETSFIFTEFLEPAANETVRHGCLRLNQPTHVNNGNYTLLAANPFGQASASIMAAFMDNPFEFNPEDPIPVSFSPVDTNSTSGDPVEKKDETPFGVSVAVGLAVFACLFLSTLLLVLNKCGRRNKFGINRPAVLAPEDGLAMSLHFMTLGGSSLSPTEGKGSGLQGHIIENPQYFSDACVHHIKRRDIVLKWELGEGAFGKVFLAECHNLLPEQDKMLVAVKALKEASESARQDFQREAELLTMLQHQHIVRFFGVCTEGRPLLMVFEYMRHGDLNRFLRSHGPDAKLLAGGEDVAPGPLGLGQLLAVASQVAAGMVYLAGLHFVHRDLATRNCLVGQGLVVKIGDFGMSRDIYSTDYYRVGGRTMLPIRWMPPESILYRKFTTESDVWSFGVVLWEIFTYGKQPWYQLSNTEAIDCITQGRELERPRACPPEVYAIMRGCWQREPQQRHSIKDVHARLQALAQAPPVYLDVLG

| SMILES | IC50 |
| --- | --- |
| NC(=O)Cc1ccc(NC(=O)c2cc(-c3ccccn3)c(C(F)(F)F)cc2F)c(-c2ccccc2)n1 [Example 124, N-(6-(2-amino-2-oxoethyl)-2-phenylpyridin-3-yl)-2-fluoro-5-(pyridin-2-yl)-4-(trifluoromethyl)benzamide] | 8.8 nM |
| NC(=O)Cc1ncc(NC(=O)c2cc(-c3ncccn3)c(C(F)(F)F)cc2F)c(-c2ccccc2)n1 [Example 125, N-(2-(2-amino-2-oxoethyl)-4-phenylpyrimidin-5-yl)-2-fluoro-5-(pyrimidin-2-yl)-4-(trifluoromethyl)benzamide] | 14 nM |
| NC(=O)Cc1cc(-c2ccccc2)c(NC(=O)c2cc(-c3ccccn3)c(C(F)(F)F)cc2F)cn1 [Example 127, N-(6-(2-amino-2-oxoethyl)-4-phenylpyridin-3-yl)-2-fluoro-5-(pyridin-2-yl)-4-(trifluoromethyl)benzamide] | 6 nM |
| CC(=O)NCc1cccc(-c2nc(C)ncc2NC(=O)c2cc(-c3ccn(C)n3)c(C(F)(F)F)cc2F)c1 [Example 132, N-(4-(3-(Acetamidomethyl)phenyl)-2-methylpyrimidin-5-yl)-2-fluoro-5-(1-methyl-1H-pyrazol-3-yl)-4-(trifluoromethyl)benzamide] | 16 nM |
| CC(=O)Nc1cccc(-c2nc(C)ncc2NC(=O)c2cc(-c3ccn(C)n3)c(C(F)(F)F)cc2F)c1 [Example 133, N-(4-(3-acetamidophenyl)-2-methylpyrimidin-5-yl)-2-fluoro-5-(1-methyl-1H-pyrazol-3-yl)-4-(trifluoromethyl)benzamide] | 4.6 nM |
| Cc1ncc(NC(=O)c2cc(-c3ccn(C)n3)c(C(F)(F)F)cc2F)c(-c2ccccc2CCN(C)C)n1 [Example 135, N-(4-(2-(2-(Dimethylamino)ethyl)phenyl)-2-methylpyrimidin-5-yl)-2-fluoro-5-(1-methyl-1H-pyrazol-3-yl)-4-(trifluoromethyl)benzamide] | 0.57 nM |

More lines, now with the values ahead:

| IC50 | SMILES |
| --- | --- |
| 17 nM | NC(=O)Cc1ncc(NC(=O)c2cc(-c3cc[nH]n3)c(C(F)(F)F)cc2F)c(-c2ccccc2)n1 [Example 126, N-(2-(2-amino-2-oxoethyl)-4-phenylpyrimidin-5-yl)-2-fluoro-5-(1H-pyrazol-3-yl)-4-(trifluoromethyl)benzamide] |
| 0.54 nM | Cn1ccc(-c2cc(C(=O)Nc3cnc(CCC(N)=O)nc3-c3ccccc3)c(F)cc2C(F)(F)F)n1 [Example 128, N-(2-(3-Amino-3-oxopropyl)-4-phenylpyrimidin-5-yl)-2-fluoro-5-(1-methyl-1H-pyrazol-3-yl)-4-(trifluoromethyl)benzamide] |
| 0.25 nM | Cn1ccc(-c2cc(C(=O)Nc3cnc(Cc4nnc[nH]4)nc3-c3ccccc3)c(F)cc2C(F)(F)F)n1 [Example 129, N-(2-((4H-1,2,4-Triazol-3-yl)methyl)-4-phenylpyrimidin-5-yl)-2-fluoro-5-(1-methyl-1H-pyrazol-3-yl)-4-(trifluoromethyl)benzamide] |
| 4.6 nM | Cn1ccc(-c2cc(C(=O)Nc3cnc(C(N)C(N)=O)nc3-c3ccccc3)c(F)cc2C(F)(F)F)n1 (stereo not drawn) [Example 130, N-(2-(1,2-Diamino-2-oxoethyl)-4-phenylpyrimidin-5-yl)-2-fluoro-5-(1-methyl-1H-pyrazol-3-yl)-4-(trifluoromethyl)benzamide] |
| 4.4 nM | Cn1ccc(-c2cc(C(=O)Nc3cnc(C4NC(=O)NC4=O)nc3-c3ccccc3)c(F)cc2C(F)(F)F)n1 (stereo not drawn) [Example 131, N-(2-(2,5-Dioxoimidazolidin-4-yl)-4-phenylpyrimidin-5-yl)-2-fluoro-5-(1-methyl-1H-pyrazol-3-yl)-4-(trifluoromethyl)benzamide] |
| 7 nM | Cc1ncc(NC(=O)c2cc(-c3ccn(C)n3)c(C(F)(F)F)cc2F)c(-c2ccccc2CCN)n1 [Example 134, N-(4-(2-(2-aminoethyl)phenyl)-2-methylpyrimidin-5-yl)-2-fluoro-5-(1-methyl-1H-pyrazol-3-yl)-4-(trifluoromethyl)benzamide] |
